Experimental data taken from patent US6737383B1, “Herbicidal oxadiazolidines” (priority 1999, dated 2004).

Key:
[1] = tested on: purple nutsedge; assay: Test B pre/postemergence purple nutsedge; type: in vivo, Cyperus rotundus
Method in brief: (§1)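 Response is a visual 0-to-10 score relative to untreated plants, where 0 means no effect and 10 means complete control, taken twelve to sixteen days after application. Treatments went onto soil at planting and onto foliage of 1- to 4-leaf plants, using a surfactant-containing non-phytotoxic solvent.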

[2] = tested on: wild oat; assay: Test B pre/postemergence wild oat; type: in vivo, Avena fatua
Method in brief: as §1

[3] = tested on: sugar beet; assay: Test B pre/postemergence sugar beet; type: in vivo, Beta vulgaris
Method in brief: as §1

[4] = tested on: smallflower flatsedge; assay: Test B flood test smallflower flatsedge; type: in vivo, Cyperus difformis
Method in brief: (§2)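 Each value is a visual injury score relative to controls, with 10 meaning complete control and 0 no effect. Evaluation took place twelve to sixteen days after the 2-leaf-stage plants were treated and kept in the greenhouse.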

[5] = tested on: pigweed; assay: Test B pre/postemergence pigweed; type: in vivo, Amaranthus retroflexus
Method in brief: as §1

[6] = tested on: crabgrass; assay: Test B pre/postemergence crabgrass; type: in vivo, Digitaria sanguinalis
Method in brief: as §1

[7] = tested on: wheat; assay: Test B pre/postemergence wheat; type: in vivo, Triticum aestivum
Method in brief: as §1

[8] = tested on: cocklebur; assay: Test B pre/postemergence cocklebur; type: in vivo, Xanthium strumarium
Method in brief: as §1

[9] = tested on: corn; assay: Test B pre/postemergence corn; type: in vivo, Zea mays
Method in brief: as §1

[10] = tested on: rice; assay: Test B flood test rice; type: in vivo, Oryza sativa
Method in brief: as §2

[11] = tested on: morningglory; assay: Test B pre/postemergence morningglory; type: in vivo, Ipomoea hederacea
Method in brief: as §1

[12] = tested on: giant foxtail; assay: Test B pre/postemergence giant foxtail; type: in vivo, Setaria faberii
Method in brief: as §1

[13] = tested on: rape; assay: Test B pre/postemergence rape; type: in vivo, Brassica napus
Method in brief: as §1

[14] = tested on: velvetleaf; assay: Test B pre/postemergence velvetleaf; type: in vivo, Abutilon theophrasti
Method in brief: as §1

[15] = tested on: soybean; assay: Test B pre/postemergence soybean; type: in vivo, Glycine max
Method in brief: as §1

[16] = tested on: blackgrass; assay: Test B pre/postemergence blackgrass; type: in vivo, Alopecurus myosuroides
Method in brief: as §1

[17] = tested on: duck salad; assay: Test B flood test duck salad; type: in vivo, Heteranthera limosa; conditions: for Plant response rating, Ducksalad: scale 0 to 10, 0 is no effect, 10 is complete control; for Ducksalad plant response rating: scale of 0 to 10 where 0 is no effect and 10 is complete control
Method in brief: as §2

[18] = tested on: bamyardgrass; assay: Test B flood test barnyardgrass; type: in vivo, Echinochloa crus-galli; conditions: for Plant response rating, Barnyardgrass: scale 0 to 10, 0 is no effect, 10 is complete control; for Barnyardgrass plant response rating: scale of 0 to 10 where 0 is no effect and 10 is complete control
Method in brief: as §2

[19] = tested on: surinam grass; assay: Test B pre/postemergence surinam grass; type: in vivo, Brachiaria decumbens
Method in brief: as §1

[20] = Postemergence, Rate 250 g/ha, scale 0 to 10, 0 is no effect, 10 is complete control
[21] = Postemergence, Rate 500 g/ha, scale of 0 to 10 where 0 is no effect and 10 is complete control
[22] = Preemergence, Rate 62 g/ha, scale 0 to 10 (0 no effect, 10 complete control)
[23] = Preemergence, Rate 125 g/ha, scale of 0 to 10 where 0 is no effect and 10 is complete control
[24] = Preemergence, Rate 250 g/ha, scale 0 to 10, 0 is no effect, 10 is complete control
[25] = Preemergence, Rate 500 g/ha, scale 0 to 10, 0 is no effect, 10 is complete control
[26] = Postemergence section (flood test species), Rate 500 g/ha, scale of 0 to 10 where 0 is no effect and 10 is complete control
[27] = flood test species, listed under Postemergence, Rate 250 g/ha, scale 0 to 10, 0 is no effect, 10 is complete control
[28] = Postemergence, Rate 125 g/ha, scale 0 to 10, 0 is no effect, 10 is complete control
[29] = Rate 62 g/ha, Postemergence, scale of 0 to 10 where 0 is no effect and 10 is complete control
[30] = Preemergence, Rate 250 g/ha, scale of 0 to 10 where 0 is no effect and 10 is complete control
[31] = Postemergence (flood test), Rate 125 g/ha
[32] = Postemergence section (flood test species), Rate 500 g/ha
[33] = Rate 62 g/ha, Postemergence (flood test species)
[34] = flood test species, listed under Postemergence, Rate 250 g/ha

CC(C)N(C(=O)n1oc(=O)n(CCBr)c1=O)c1ccccc1 [Compound 415]
2: Wheat plant response rating [7, 24] | Corn plant response rating [9, 21] | Plant response rating, Corn [9, 23] | Plant response rating, Rape [13, 22] | Plant response rating, Velvetleaf [14, 20] | Velvetleaf plant response rating [14, 21] | Plant response rating, Velvetleaf [14, 23] | Plant response rating, B. signalgrass [19, 20] | Plant response rating, B. signalgrass [19, 22]
9: Crabgrass plant response rating [6, 21] | Crabgrass plant response rating [6, 24] | Plant response rating, Giant foxtail [12, 20] | Giant foxtail plant response rating [12, 21] | Plant response rating, Giant foxtail [12, 22] | Blackgrass plant response rating [16, 21] | Blackgrass plant response rating [16, 30] | Blackgrass plant response rating [16, 25]
0: Plant response rating, Nutsedge [1, 20] | Nutsedge plant response rating [1, 21] | Plant response rating, Nutsedge [1, 22] | Plant response rating, Nutsedge [1, 23] | Nutsedge plant response rating [1, 24] | Nutsedge plant response rating [1, 25] | Plant response rating, Wild oats [2, 22] | Plant response rating, Sugarbeets [3, 20] | Sugarbeets plant response rating [3, 21] | Plant response rating, Sugarbeets [3, 22] | Plant response rating, Sugarbeets [3, 23] | Plant response rating, Redroot pigweed [5, 20] | Plant response rating, Redroot pigweed [5, 22] | Plant response rating, Redroot pigweed [5, 23] | Crabgrass plant response rating [6, 29] | Plant response rating, Wheat [7, 22] | Plant response rating, Wheat [7, 23] | Plant response rating, Cocklebur [8, 28] | Plant response rating, Cocklebur [8, 22] | Plant response rating, Cocklebur [8, 23] | Cocklebur plant response rating [8, 24] | Cocklebur plant response rating [8, 25] | Cocklebur plant response rating [8, 29] | Plant response rating, Corn [9, 28] | Plant response rating, Corn [9, 22] | Corn plant response rating [9, 29] | Rice plant response rating [10, 26] | Plant response rating, Rice [10, 27] | Plant response rating, Morningglory [11, 22] | Plant response rating, Morningglory [11, 23] | Morningglory plant response rating [11, 24] | Morningglory plant response rating [11, 25] | Plant response rating, Rape [13, 20] | Plant response rating, Velvetleaf [14, 22] | Plant response rating, Soybean [15, 22] | Plant response rating, Soybean [15, 23] | Soybean plant response rating [15, 24] | Soybean plant response rating [15, 25] | Blackgrass plant response rating [16, 29] | Plant response rating, Ducksalad [17, 31] | Ducksalad plant response rating [17, 32] | Ducksalad plant response rating [17, 33] | Plant response rating, Ducksalad [17, 34] | Plant response rating, Barnyardgrass [18, 31] | Barnyardgrass plant response rating [18, 32] | Barnyardgrass plant response rating [18, 33] | Plant response rating, Barnyardgrass [18, 34] | Plant response rating, B. signalgrass [19, 28] | B. signalgrass plant response rating [19, 29]
10: Redroot pigweed plant response rating [5, 25] | Crabgrass plant response rating [6, 25] | Plant response rating, Giant foxtail [12, 23] | Giant foxtail plant response rating [12, 24] | Giant foxtail plant response rating [12, 25] | Rape plant response rating [13, 24] | Rape plant response rating [13, 25]
8: Sugarbeets plant response rating [3, 25] | Plant response rating, Crabgrass [6, 20] | Plant response rating, Crabgrass [6, 22] | Plant response rating, Crabgrass [6, 23] | Plant response rating, Giant foxtail [12, 28] | Plant response rating, Blackgrass [16, 20]
7: Morningglory plant response rating [11, 21] | Velvetleaf plant response rating [14, 25] | Soybean plant response rating [15, 21]
1: Plant response rating, Crabgrass [6, 28] | Plant response rating, Cocklebur [8, 20] | Plant response rating, Corn [9, 20] | Rape plant response rating [13, 21]
6: Wild oats plant response rating [2, 24] | Wild oats plant response rating [2, 25] | Sugarbeets plant response rating [3, 24] | Redroot pigweed plant response rating [5, 24] | Plant response rating, Morningglory [11, 20] | Plant response rating, Rape [13, 23] | Velvetleaf plant response rating [14, 24] | B. signalgrass plant response rating [19, 21] | B. signalgrass plant response rating [19, 30] | B. signalgrass plant response rating ([19]; Preemergence, Rate 500 g/ha, scale of 0 to 10 where 0 is no effect and 10 is complete control)
4: Cocklebur plant response rating [8, 21] | Corn plant response rating [9, 25] | Plant response rating, Soybean [15, 20]
5: Giant foxtail plant response rating [12, 29] | Plant response rating, Blackgrass [16, 22] | Plant response rating, Blackgrass [16, 23]
3: Wild oats plant response rating [2, 21] | Plant response rating, Wild oats [2, 23] | S. Flatsedge plant response rating [4, 26] | Plant response rating, S. Flatsedge [4, 27] | Redroot pigweed plant response rating [5, 21] | Wheat plant response rating [7, 21] | Wheat plant response rating [7, 25] | Corn plant response rating [9, 24] | Plant response rating, Blackgrass [16, 28] | Plant response rating, B. signalgrass [19, 23]
